Test system: genes predictive for the anti-inflammatory macrolide effect
Test: Genes statistically predictive of Clari response: differentially expressed with Clari but not the inactive macrolides MAA or Josa (Appendix E)
Type: cell-based
From the text: In the case of the above-mentioned (i) related to arachidonic acid biosynthesis, specifically, methods of the embodiment involve assaying whether a test macrolide alters biosynthesis of arachidonic acid, alters the expression or activities of enzymes involved in the biosynthesis or activation of arachidonic acid (e.g., arachidonic acid CoA synthetase, delta-6 desaturase, fatty acid elongase, and delta-5 desaturase, AA-related genes in Tables 2 and 3), or alters the expression of genes identified as predictive for the anti-inflammatory macrolide effect (Appendix E). Assays in which arachidonic acid or gene expression or enzymatic activity is detected can be carried out after contacting a cell with a test macrolide. Any cell line that secretes prostaglandin or produces arachidonic acid can be used. Epithelial and macrophages lines (e.g., A549 or THP-1) are suitable for this purpose; other cell lines can be identified by carrying out assays such as those described in the specific Examples, below. Alternatively, screening assays can be carried out after adding a test macrolide to an in vitro cell system (e.g., a cellular extract or liver microsome preparation) or an in vitro enzyme assay system.

## CC[C@H]1OC(=O)[C@H](C)[C@@H](O[C@H]2C[C@@](C)(OC)[C@@H](O)[C@H](C)O2)[C@H](C)[C@@H](O[C@@H]2O[C@H](C)C[C@H](N(C)C)[C@H]2O)[C@](C)(OC)C[C@@H](C)C(=O)[C@H](C)[C@@H](O)[C@]1(C)O [clarithromycin]
SpotID 48807, MAA and Josa vs. Clari
  group mean, gene UNG: 0.91
SpotID 48914, MAA and Josa vs. Clari
  group mean, gene TUBB: 0.83
SpotID 48921, MAA and Josa vs. Clari
  group mean, gene ITGAE: 0.99
SpotID 48921, pooled group mean
  mean group, ITGAE: 0.97
SpotID 48971, MAA and Josa vs. Clari
  group mean, gene P4HA2: 1.48
SpotID 48998, MAA and Josa vs. Clari
  group mean, gene FADS1: 1.44
SpotID 49006, MAA and Josa vs. Clari
  group mean, gene PRSS25: 1.17
SpotID 49006, pooled group mean
  mean group, PRSS25: 1.14
SpotID 49007, MAA and Josa vs. Clari
  group mean, gene TM9SF2: 1.20
SpotID 49007, pooled group mean
  mean group, TM9SF2: 1.18
SpotID 49013, MAA and Josa vs. Clari
  group mean, gene BBC3: 1.07
SpotID 49028, MAA and Josa vs. Clari
  group mean, gene BNIP3L: 1.25
SpotID 49028, pooled group mean
  mean group, BNIP3L: 1.20
SpotID 49032, MAA and Josa vs. Clari
  group mean, gene GSK3B: 1.23
SpotID 49047, MAA and Josa vs. Clari
  group mean, gene GLUD1: 0.95
SpotID 49117, MAA and Josa vs. Clari
  group mean, gene SERPINB1: 0.84
SpotID 49117, pooled group mean
  mean group, SERPINB1: 0.88
SpotID 49142, MAA and Josa vs. Clari
  group mean, gene PPIB: 1.18
SpotID 49144, MAA and Josa vs. Clari
  group mean, gene PIK3R3: 1.15
SpotID 49155, MAA and Josa vs. Clari
  group mean, gene ARTS-1: 0.81
SpotID 49155, pooled group mean
  mean group, ARTS-1: 0.86
SpotID 49163, MAA and Josa vs. Clari
  group mean, gene LGALS3: 1.23
SpotID 49169, MAA and Josa vs. Clari
  group mean, gene RRS1: 0.88
SpotID 49169, pooled group mean
  mean group, RRS1: 0.93
SpotID 49172, MAA and Josa vs. Clari
  group mean, gene YAF2: 0.90
SpotID 49177, MAA and Josa vs. Clari
  group mean, gene NEDD8: 1.06
SpotID 49183, MAA and Josa vs. Clari
  group mean, gene SRRM1: 0.81
SpotID 49197, MAA and Josa vs. Clari
  group mean, gene FUCA1: 1.13
SpotID 49233, MAA and Josa vs. Clari
  group mean, gene APOE: 1.03
SpotID 49233, pooled group mean
  mean group, APOE: 1.01
SpotID 49272, pooled group mean
  mean group, TNFRSF10B: 1.08
SpotID 49314, MAA and Josa vs. Clari
  group mean, gene PPIB: 1.18
SpotID 49314, pooled group mean
  mean group, PPIB: 1.16
SpotID 49318, MAA and Josa vs. Clari
  group mean, gene YWHAH: 0.95
SpotID 49318, pooled group mean
  mean group, YWHAH: 0.97
SpotID 49347, MAA and Josa vs. Clari
  group mean, gene HNRPA3: 0.71
SpotID 49352, MAA and Josa vs. Clari
  group mean, gene NCBP2: 1.03
SpotID 49360, MAA and Josa vs. Clari
  group mean, gene TEB4: 0.88
SpotID 49360, pooled group mean
  mean group, TEB4: 0.94
SpotID 49364, MAA and Josa vs. Clari
  group mean, gene ABCE1: 0.92
SpotID 49373, MAA and Josa vs. Clari
  group mean, gene EIF3S9: 0.94
SpotID 49374 (gene symbol not given), pooled group mean
  mean group, SpotID 49374: 1.03
SpotID 49374, MAA and Josa vs. Clari
  group mean, SpotID 49374 (gene symbol not given): 1.04
SpotID 49380, MAA and Josa vs. Clari
  group mean, gene SLC35A2: 1.11
SpotID 49391, MAA and Josa vs. Clari
  group mean, gene PPP3CB: 0.92
SpotID 49435, MAA and Josa vs. Clari
  group mean, gene TRRAP: 0.89
SpotID 49435, pooled group mean
  mean group, TRRAP: 0.92
SpotID 49446, MAA and Josa vs. Clari
  group mean, gene SRC: 1.17
SpotID 49446, pooled group mean
  mean group, SRC: 1.14
SpotID 49481, MAA and Josa vs. Clari
  group mean, gene LOC55871: 1.05
SpotID 49490, MAA and Josa vs. Clari
  group mean, gene VTN: 0.91
SpotID 49490, pooled group mean
  mean group, VTN: 0.94
SpotID 49511, MAA and Josa vs. Clari
  group mean, gene MATN2: 1.17
SpotID 49512, MAA and Josa vs. Clari
  group mean, gene GC20: 1.16
SpotID 49514, MAA and Josa vs. Clari
  group mean, gene UBC: 1.11
SpotID 49514, pooled group mean
  mean group, UBC: 1.09
SpotID 49524, MAA and Josa vs. Clari
  group mean, gene AP1G2: 0.97
SpotID 49524, pooled group mean
  mean group, AP1G2: 0.92
SpotID 49546, MAA and Josa vs. Clari
  group mean, gene GNPI: 1.16
SpotID 49577, pooled group mean
  mean group, LOC54543: 1.02
SpotID 49580, MAA and Josa vs. Clari
  group mean, gene PSMC4: 0.99
SpotID 49606, pooled group mean
  mean group, CSTF3: 1.07
SpotID 49608, MAA and Josa vs. Clari
  group mean, gene POU4F1: 1.05
SpotID 49618, MAA and Josa vs. Clari
  group mean, gene CLN2: 1.15
SpotID 49618, pooled group mean
  mean group, CLN2: 1.12
SpotID 49649, MAA and Josa vs. Clari
  group mean, gene FGF2: 0.76
SpotID 49650, MAA and Josa vs. Clari
  group mean, gene MAP3K10: 1.16
SpotID 49673, pooled group mean
  mean group, BTN3A2: 1.11
SpotID 49679, pooled group mean
  mean group, SERPINF1: 1.09
SpotID 49688, MAA and Josa vs. Clari
  group mean, gene GSK3B: 1.26
SpotID 49698, MAA and Josa vs. Clari
  group mean, gene CAT: 1.08
SpotID 49705, MAA and Josa vs. Clari
  group mean, gene PCYT2: 1.24
SpotID 49715, MAA and Josa vs. Clari
  group mean, gene HNRPD: 0.88
SpotID 49735, MAA and Josa vs. Clari
  group mean, gene GSK3B: 1.13
SpotID 49737, MAA and Josa vs. Clari
  group mean, gene CHAF1B: 0.84
SpotID 49737, pooled group mean
  mean group, CHAF1B: 0.88
SpotID 49744, MAA and Josa vs. Clari
  group mean, gene USF2: 1.07
SpotID 49747, MAA and Josa vs. Clari
  group mean, gene RPLP0: 1.09
